According to patent US9085576B2 (AMGEN INC., priority 2013, dated 2015):
Structures can show the parent of a compound that is named as a salt.

Key:
[1] = biological target: Beta Secretase enzyme (BACE) (Homo sapiens (Human), UniProt P56817); test: In vitro enzymatic BACE FRET assay; assay type: biochemical; conditions: read-out: BACE1 Enzyme assay IC50
Cathepsin D (Cat D) = Cathepsin D (Cat D) (Homo sapiens (Human), UniProt P07339); test: In vitro enzymatic Cathepsin D (Cat D) FRET assay; assay type: biochemical; conditions: read-out: CatD IC50
Sequence of Cathepsin D (Cat D) (P07339 65-412, species assumed): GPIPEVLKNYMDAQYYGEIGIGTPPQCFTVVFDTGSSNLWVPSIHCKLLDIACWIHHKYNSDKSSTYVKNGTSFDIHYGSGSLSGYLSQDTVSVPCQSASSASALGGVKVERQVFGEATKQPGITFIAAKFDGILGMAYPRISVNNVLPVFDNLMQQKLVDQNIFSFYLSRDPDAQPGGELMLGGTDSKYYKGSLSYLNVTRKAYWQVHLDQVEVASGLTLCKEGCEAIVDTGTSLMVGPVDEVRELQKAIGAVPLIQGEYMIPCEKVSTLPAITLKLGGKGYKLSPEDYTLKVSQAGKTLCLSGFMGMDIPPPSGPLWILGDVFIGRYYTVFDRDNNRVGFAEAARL

Sequence of Beta Secretase enzyme (BACE) (P56817 46-501): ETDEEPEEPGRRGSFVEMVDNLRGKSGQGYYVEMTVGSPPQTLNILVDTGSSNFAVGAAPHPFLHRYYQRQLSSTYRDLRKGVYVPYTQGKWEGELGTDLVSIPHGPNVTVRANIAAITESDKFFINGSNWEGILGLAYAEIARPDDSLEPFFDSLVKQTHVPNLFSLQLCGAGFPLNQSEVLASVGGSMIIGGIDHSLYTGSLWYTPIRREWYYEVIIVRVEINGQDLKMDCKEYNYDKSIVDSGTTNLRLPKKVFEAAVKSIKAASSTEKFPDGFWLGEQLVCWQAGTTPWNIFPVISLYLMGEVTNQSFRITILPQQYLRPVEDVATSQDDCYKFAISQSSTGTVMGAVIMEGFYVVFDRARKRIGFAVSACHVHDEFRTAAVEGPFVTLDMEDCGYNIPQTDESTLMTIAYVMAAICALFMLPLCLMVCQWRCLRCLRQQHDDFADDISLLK

Row | Compound | IC50 [1] | IC50 (Cathepsin D (Cat D))
1 | NC1=N[C@@](c2cccc(NC(=O)c3ccc(Cl)cn3)c2)(C(F)F)[C@H]2C[C@H]2O1 [Example 263, N-(3-([(1R,S),(5S,R),(6R,S)]-3-amino-5-(difluoromethyl)-2-oxa-4-azabicyclo[4.1.0]hept-3-en-5-yl)phenyl)-5-chloropicolinamide] | 0.525 µM | 1060 µM
2 | COc1cnc2c(Nc3ccc(F)c([C@]4(C)N=C(N)O[C@H]5C[C@H]54)c3)nccc2c1 [Example 339] | 8.11 µM | > 400 µM
3 | NC1=N[C@@](c2cc(N[C@H]3CCCc4cc(Br)cnc43)ccc2F)(C(F)F)[C@H]2C[C@H]2O1 (mixture of isomers) [Example 382, (1R,5S,6R)-5-(5-(((R)-3-bromo-5,6,7,8-tetrahydroquinolin-8-yl)amino)-2-fluorophenyl)-5-(difluoromethyl)-2-oxa-4-azabicyclo[4.1.0]hept-3-en-3-amine and (1R,5S,6R)-5-(5-(((S)-3-bromo-5,6,7,8-tetrahydroquinolin-8-yl)amino)-2-fluorophenyl)-5-(difluoromethyl)-2-oxa-4-azabicyclo[4.1.0]hept-3-en-3-amine] | 3.07 µM | 263 µM
4 | (R)-8-((3-((1R,5S,6R)-3-amino-5-(difluoromethyl)-2-oxa-4-azabicyclo[4.1.0]hept-3-en-5-yl)-4-fluorophenyl)amino)-5,6,7,8-tetrahydroquinoline-3-carbonitrile and (S)-8-((3-((1R,5S,6R)-3-amino-5-(difluoromethyl)-2-oxa-4-azabicyclo[4.1.0]hept-3-en-5-yl)-4-fluorophenyl)amino)-5,6,7,8-tetrahydroquinoline-3-carbonitrile [Example 403] | 2.85 µM | 469 µM
5 | C#CCOc1cnc(C(=O)Nc2ccc(Cl)c([C@]3(C(F)F)N=C(N)O[C@H]4C[C@H]43)c2)cn1 [Example 222, N-(3-((1S,5R,6S)-3-amino-5-(difluoromethyl)-2-oxa-4-azabicyclo[4.1.0]hept-3-en-5-yl)-4-chlorophenyl)-5-(prop-2-yn-1-yloxy)pyrazine-2-carboxamide] | 0.701 µM | 493 µM
6 | N-(3-((1R,5S,6R)-3- amino-5- (difluoromethyl)-2-oxa- 4-azabicyclo[4.1.0]hept- 3-en-5-yl)-4-fluoro-5- methylphenyl)-4-chloro- 2-(fluoromethyl) benzamide [Example 444] | 0.0105 µM | 171 µM
7 | NC1=N[C@](c2cc(NC(=O)c3nn(C(F)F)cc3Cl)ccc2Cl)(C(F)F)[C@@H]2C[C@@H]2O1 (racemic) [Example 220, N-(3-((1(R,S),5(S,R),6(R,S))-3-amino-5-(difluoromethyl)-2-oxa-4-azabicyclo[4.1.0]hept-3-en-5-yl)-4-chlorophenyl)-4-chloro-1-(difluoromethyl)-1H-pyrazole-3-carboxamide] | 0.0188 µM | 691 µM
8 | C#CCOc1cnc(C(=O)Nc2ccc(Cl)c([C@]3(C(F)F)N=C(N)O[C@H]4C[C@H]43)c2)cn1 (racemic) [Example 219, N-(3-((1(S,R),5(R,S),6(S,R))-3-amino-5-(difluoromethyl)-2-oxa-4-azabicyclo[4.1.0]hept-3-en-5-yl)-4-chlorophenyl)-5-(prop-2-yn-1-yloxy)pyrazine-2-carboxamide] | 0.0063 µM | 65.8 µM
9 | (R)-4-((3-((1R,5S,6R)-3-amino-5-(difluoromethyl)-2-oxa-4-azabicyclo[4.1.0]hept-3-en-5-yl)-4-fluorophenyl)amino)chroman-7-carbonitrile and (S)-4-((3-((1R,5S,6R)-3-amino-5-(difluoromethyl)-2-oxa-4-azabicyclo[4.1.0]hept-3-en-5-yl)-4-fluorophenyl)amino)chroman-7-carbonitrile [Example 383] | 0.968 µM | 
10 | NC1=N[C@@](c2cc(-c3nc4ccc(Cl)cc4o3)ccc2F)(C(F)F)[C@H]2C[C@H]2O1 [Example 426, (1R,5S,6R)-5-(5-(6-chlorobenzo[d]oxazol-2-yl)-2-fluorophenyl)-5-(difluoromethyl)-2-oxa-4-azabicyclo[4.1.0]hept-3-en-3-amine] | 1.24 µM | 196 µM
11 | NC1=N[C@@](c2cc(N[C@H]3CCc4cc(Br)cnc43)ccc2F)(C(F)F)[C@H]2C[C@H]2O1 (single isomer, unassigned) [Example 381, (1R,5S,6R)-5-(5-(((S)-3-bromo-6,7-dihydro-5H-cyclopenta[b]pyridin-7-yl)amino)-2-fluorophenyl)-5-(difluoromethyl)-2-oxa-4-azabicyclo[4.1.0]hept-3-en-3-amine or (1R,5S,6R)-5-(5-(((R)-3-bromo-6,7-dihydro-5H-cyclopenta[b]pyridin-7-yl)amino)-2-fluorophenyl)-5-(difluoromethyl)-2-oxa-4-azabicyclo[4.1.0]hept-3-en-3-amine] | 3.45 µM | 83.3 µM
12 | CNc1cnc(C(=O)Nc2ccc(F)c([C@@]3(C(F)F)N=C(N)O[C@@H]4C[C@@H]43)c2)nc1 [Example 439, N-(3-((1R,5S,6R)-3-amino-5-(difluoromethyl)-2-oxa-4-azabicyclo[4.1.0]hept-3-en-5-yl)-4-fluorophenyl)-5-(methylamino)pyrimidine-2-carboxamide dihydrochloride] | 0.473 µM | 490 µM
13 | NC1=N[C@@](c2cc(N[C@@H]3CCc4cc(Br)ccc43)ccc2F)(C(F)F)[C@H]2C[C@H]2O1.NC1=N[C@@](c2cc(N[C@H]3CCc4cc(Br)ccc43)ccc2F)(C(F)F)[C@H]2C[C@H]2O1 (mixture of isomers) [Example 384, (1R,5S,6R)-5-(5-(((R)-5-bromo-2,3-dihydro-1H-inden-1-yl)amino)-2-fluorophenyl)-5-(difluoromethyl)-2-oxa-4-azabicyclo[4.1.0]hept-3-en-3-amine and (1R,5S,6R)-5-(5-(((S)-5-bromo-2,3-dihydro-1H-inden-1-yl)amino)-2-fluorophenyl)-5-(difluoromethyl)-2-oxa-4-azabicyclo[4.1.0]hept-3-en-3-amine] | 0.315 µM | 82.5 µM
14 | N=C1N[C@](CF)(c2cc(-c3cncc(F)c3)c(CO)cc2F)[C@H]2CC2O1 (stereo partly drawn) [Example 433, (5-fluoro-4-([(1R,S),(5S,R),(6R,S)]-5-(fluoromethyl)-3-imino-2-oxa-4-azabicyclo[4.1.0]heptan-5-yl)-2-(5-fluoropyridin-3-yl)phenyl)methanol] | 23.1 µM | 
15 | C#C[C@@H](C)Oc1cnc(C(=O)Nc2ccc(F)c([C@@]3(C(F)F)N=C(N)O[C@@H]4C[C@@H]43)c2)cn1 [Example 148, N-(3-((1R,5S,6R)-3-amino-5-(difluoromethyl)-2-oxa-4-azabicyclo[4.1.0]hept-3-en-5-yl)-4-fluorophenyl)-5-((R)-but-3-yn-2-yloxy)pyrazine-2-carboxamide] |  | 849 µM
16 | NC1=N[C@@](c2cc(NC(=O)c3coc(CF)n3)ccc2F)(C(F)F)[C@H]2C[C@H]2O1 [Example 168, N-(3-((1R,5S,6R)-3-amino-5-(difluoromethyl)-2-oxa-4-azabicyclo[4.1.0]hept-3-en-5-yl)-4-fluorophenyl)-2-(fluoromethyl)oxazole-4-carboxamide] |  | 56.8 µM

Further lines, results first:

Row | IC50 [1] | IC50 (Cathepsin D (Cat D)) | Compound
17 | 24.1 µM | > 400 µM | NC1=N[C@@](CF)(c2cc(NC(=O)c3ccc(Cl)cn3)ccc2Cl)[C@@H]2C[C@@H]2O1 [Example 271]
18 | > 40 µM | 1290 µM | C[C@@]1(c2nc(NC(=O)c3ccc(C#N)cn3)ccc2F)N=C(N)O[C@H]2C[C@H]21 [Example 325, N-(6-((1S,5R,6S)-3-amino-5-methyl-2-oxa-4-azabicyclo[4.1.0]hept-3-en-5-yl)-5-fluoropyridin-2-yl)-5-cyanopicolinamide]
19 | 0.0021 µM | 42.5 µM | C#CCOc1cnc(C(=O)Nc2cc(F)c(F)c([C@@]3(C(F)F)N=C(N)O[C@@H]4C[C@@H]43)c2)cn1 [Example 115, N-(3-((1R,5S,6R)-3-amino-5-(difluoromethyl)-2-oxa-4-azabicyclo[4.1.0]hept-3-en-5-yl)-4,5-difluorophenyl)-5-(prop-2-yn-1-yloxy)pyrazine-2-carboxamide]
20 | 0.0448 µM | 539 µM | Cc1cc(C#N)cnc1C(=O)Nc1cc(F)c(Cl)c([C@]2(CF)N=C(N)O[C@H]3C[C@H]32)c1 (racemic) [Example 137, N-(3-((1R/S,5S/R,6R/S)-3-amino-5-(fluoromethyl)-2-oxa-4-azabicyclo[4.1.0]hept-3-en-5-yl)-4-chloro-5-fluorophenyl)-5-cyano-3-methylpicolinamide]
21 | 6.5 µM | 1000 µM | C#CCOc1cnc(C(=O)Nc2cc(F)c(F)c([C@@]3(C(F)F)N=C(N)O[C@@H]4C[C@@H]43)c2)cn1 [Example 111, N-(3-((1R,5S,6R)-3-amino-5-(difluoromethyl)-2-oxa-4-azabicyclo[4.1.0]hept-3-en-5-yl)-4,5-difluorophenyl)-5-(prop-2-yn-1-yloxy)pyrazine-2-carboxamide]
22 |  | 1160 µM | N#Cc1ccc(C(=O)Nc2ccc(Cl)c([C@@]3(C(F)F)N=C(N)O[C@@H]4C[C@@H]43)c2)nc1 (racemic) [Example 98, N-(3-(((1R,S), (5S,R), (6R,S))-3-amino-5-(difluoromethyl)-2-oxa-4-azabicyclo[4.1.0]hept-3-en-5-yl)-4-chlorophenyl)-5-cyanopicolinamide trifluoroacetate]
23 |  | 736 µM | COCc1cc(Cl)cnc1C(=O)Nc1ccc(F)c([C@@]2(C(F)F)N=C(N)O[C@@H]3C[C@@H]32)c1 [Example 42, N-(3-((1R,5S,6R)-3-amino-5-(difluoromethyl)-2-oxa-4-azabicyclo[4.1.0]hept-3-en-5-yl)-4-fluorophenyl)-5-chloro-3-(methoxymethyl) picolinamide]
24 |  | 725 µM | Cc1cc(C#N)cnc1C(=O)Nc1cc(C)c(F)c([C@@]2(C(F)F)N=C(N)O[C@@H]3C[C@@H]32)c1 [Example 132, N-(3-((1R,5S,6R)-3-amino-5-(difluoromethyl)-2-oxa-4-azabicyclo[4.1.0]hept-3-en-5-yl)-4-fluoro-5-methylphenyl)-5-cyano-3-methylpicolinamide]
25 |  | 1920 µM | N#Cc1ccc(C(=O)Nc2ccc(Cl)c([C@]3(C(F)F)N=C(N)O[C@H]4C[C@H]43)c2)nc1 [Example 94, N-(3-((1S,5R,6S)-3-amino-5-(difluoromethyl)-2-oxa-4-azabicyclo[4.1.0]hept-3-en-5-yl)-4-chlorophenyl)-5-cyanopicolinamide]
